Experimental data published in ChEMBL document CHEMBL4219250, “Kröhnke pyridines: Rapid and facile access to Mcl-1 inhibitors” (Bioorg Med Chem Lett, 2018).
Calls of active or inactive are those of the source. The rule behind the calls is not given here.

These compounds were tested against T1, Induced myeloid leukemia cell differentiation protein Mcl-1 (Homo sapiens, UniProt Q07820) (assay: Binding affinity to 15N-labeled His6-MBP-tagged recombinant human MCl-1 (172 to 327 residues) expressed in HMS174 (DE3) cells by two-dimensional1H-15N HSQC NMR spectra method).
T1 sequence (Q07820 whole entry, the tested form may be a part): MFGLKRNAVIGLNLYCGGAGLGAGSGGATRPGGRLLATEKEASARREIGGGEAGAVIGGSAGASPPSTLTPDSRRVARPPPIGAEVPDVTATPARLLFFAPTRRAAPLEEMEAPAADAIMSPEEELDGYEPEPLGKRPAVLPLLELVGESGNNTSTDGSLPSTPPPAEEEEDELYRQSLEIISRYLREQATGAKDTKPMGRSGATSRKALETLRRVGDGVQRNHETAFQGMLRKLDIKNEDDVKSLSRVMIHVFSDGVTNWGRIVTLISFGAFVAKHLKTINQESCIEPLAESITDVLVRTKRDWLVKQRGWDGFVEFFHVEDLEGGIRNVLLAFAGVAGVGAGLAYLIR
Assay type: cell-based

Activity	SMILES
Active	O=C(O)c1cc(-c2ccc(Br)cc2)nc(-c2ccc(Oc3ccccc3)cc2)c1

The compounds below were run against T1, Induced myeloid leukemia cell differentiation protein Mcl-1 (assay: Displacement of TAMRA-Bak peptide from His6-MBP-tagged recombinant human MCl-1 (172 to 327 residues) expressed in HMS174 (DE3) cells by fluorescence polarization assay).

Ki	SMILES
7.33 µM	CC(C)Oc1ccc(-c2cc(-c3ccc(Oc4ccccc4)cc3)cc(C(=O)O)n2)cc1
4.43 µM	O=C(O)c1cc(-c2ccc(Br)cc2)nc(-c2ccc(Oc3ccccc3)cc2)c1
40 µM	O=C(O)c1cc(-c2ccc(Br)cc2)cc(-c2ccc(Cl)cc2)n1
10.9 µM	COc1ccc(-c2cc(-c3ccc(Oc4ccccc4)cc3)cc(C(=O)O)n2)cc1
19.7 µM	CC(C)Oc1ccc(-c2cc(C(=O)O)nc(-c3ccc(OC(C)C)cc3OC(C)C)c2)cc1
13.7 µM	O=C(O)c1cc(-c2ccc(Oc3ccccc3)cc2)cc(-c2ccc([N+](=O)[O-])cc2)n1
6.1 µM	O=C(O)c1cc(-c2ccc(Oc3ccccc3)cc2)cc(-c2ccc(OCc3ccccc3)cc2)n1
9.24 µM	O=C(O)c1cc(-c2ccc(Oc3ccccc3)cc2)cc(-c2ccccc2)n1
28.8 µM	CC(C)Oc1ccc(-c2cc(C(=O)O)nc(-c3ccc(OC(C)C)cc3)c2)cc1
> 100 µM	O=C(O)c1cc(-c2ccc(Br)cc2)cc(-c2ccc3c(c2)OCO3)n1
40 µM	COc1ccc(-c2cc(-c3ccc(Br)cc3)cc(C(=O)O)n2)cc1
40 µM	O=C(O)c1cc(-c2ccc(Br)cc2)cc(-c2ccc(Br)cc2)n1
7.6 µM	O=C(O)c1cc(-c2ccc(Br)cc2)cc(-c2ccc(OCc3ccccc3)cc2)n1
38.2 µM	O=C(O)c1cc(-c2ccc(Oc3ccccc3)cc2)cc(-c2ccc3c(c2)OCO3)n1
9.22 µM	O=C(O)c1cc(-c2ccc(OCc3ccccc3)cc2)cc(-c2ccc(OCc3ccccc3)cc2)n1
9.77 µM	CC(C)Oc1ccc(-c2cc(C(=O)O)nc(-c3ccc(OCc4ccccc4)cc3)c2)cc1
10.3 µM	O=C(O)c1cc(-c2ccc(Oc3ccccc3)cc2)cc(-c2ccccc2Br)n1
100 µM	O=C(O)c1cc(-c2ccc(Br)cc2)cc(-c2ccccc2)n1
7.44 µM	O=C(O)c1cc(-c2ccc(Oc3ccccc3)cc2)cc(-c2ccc(Br)cc2)n1
8.47 µM	O=C(O)c1cc(-c2ccc(Oc3ccccc3)cc2)cc(-c2cccc(Br)c2)n1
